Measured values as given in article PMC5462828 (Scientific Reports, 2017).

How the values were obtained:
[1] = molecular target: T1, RXFP1 (Homo sapiens, UniProt Q9HBX9); assay: JNK1/2 phosphorylation (Surefire) in HEK-RXFP1 cells; assay type: cell-based; set-up: expressed in transfected cells; host or cells: HEK293T / HEK293 cells stably expressing RXFP1 (HEK-RXFP1); conditions: up to 45 min, H2 relaxin 100 nM, ML290 100 nM or 10 μM
T1 sequence (Q9HBX9 1-757): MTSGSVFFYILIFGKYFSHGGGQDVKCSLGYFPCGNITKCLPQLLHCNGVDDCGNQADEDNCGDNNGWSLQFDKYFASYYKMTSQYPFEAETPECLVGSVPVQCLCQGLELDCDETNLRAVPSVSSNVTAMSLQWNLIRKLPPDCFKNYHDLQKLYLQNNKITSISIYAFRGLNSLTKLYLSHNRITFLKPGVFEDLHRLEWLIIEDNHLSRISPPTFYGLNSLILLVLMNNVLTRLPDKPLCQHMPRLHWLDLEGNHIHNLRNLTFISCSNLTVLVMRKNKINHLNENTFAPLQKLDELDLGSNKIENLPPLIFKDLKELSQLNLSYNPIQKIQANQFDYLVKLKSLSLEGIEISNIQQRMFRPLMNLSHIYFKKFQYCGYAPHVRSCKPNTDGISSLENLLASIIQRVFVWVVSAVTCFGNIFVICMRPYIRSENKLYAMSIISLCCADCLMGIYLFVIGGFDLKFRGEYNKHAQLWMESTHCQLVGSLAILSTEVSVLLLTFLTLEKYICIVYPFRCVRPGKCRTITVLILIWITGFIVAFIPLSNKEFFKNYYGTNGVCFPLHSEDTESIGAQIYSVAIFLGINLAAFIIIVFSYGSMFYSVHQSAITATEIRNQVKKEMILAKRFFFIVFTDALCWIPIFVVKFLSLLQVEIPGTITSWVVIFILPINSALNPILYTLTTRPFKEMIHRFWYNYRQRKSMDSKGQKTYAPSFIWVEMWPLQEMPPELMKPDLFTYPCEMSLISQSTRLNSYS
Method: (§1) p-ERK1/2, p-p38MAPK and p-JNK1/2 was measured using the Surefire ERK, p38 and JNK kits (TGR BioSciences, Australia) as described previously, [16]. Briefly, HEK-RXFP1 cells were plated into 96-well plates (5 × 10^4 cells/well) and primary cells grown in 24-well plates (1 × 10^5 cells/well) overnight to achieve a confluent monolayer. Prior to stimulation, HEK293 cells were serum-starved with DMEM containing 0.5% (v/v) FBS and primary cells in M199 medium for 4–6 hours. […] Levels of p-ERK1/2, p-p38MAPK and p-JNK1/2/3 were detected as per manufacturer’s instructions (Perkin-Elmer, Australia).

[2] = molecular target: T1, RXFP1; assay: cAMP accumulation in HEK-RXFP1 cells; assay type: cell-based; set-up: expressed in transfected cells; host or cells: HEK293T / HEK293 cells stably expressing RXFP1 (HEK-RXFP1); conditions: read-out: cAMP accumulation efficacy (Emax)
Method: (§2) cAMP and cGMP accumulation was determined as previously described, [16]. Briefly, HEK293 cells were plated in 96-well plates (5 × 10^4 cells/well) and human primary cells were plated into 24-well plates (1 × 10^5 cells/well) and grown overnight to achieve a confluent monolayer. Prior to stimulation, HEK cells were serum-starved in DMEM containing 0.5% FBS v/v and primary cells were serum-starved in M199 medium for 4–6 hours. Where appropriate, cells were pre-incubated with mSIRK (5 μM, 30 min), mSIRK control peptide L9A (5 μM, 30 min), gallein (100 μM, 30 min), Wortmannin (100 nM, 30 min), NF023 (10 μM, 30 min) and NF449 (10 μM, 30 min). Levels of cAMP and cGMP were detected according to the manufacturer’s instructions (Perkin-Elmer, Australia).

[3] = molecular target: T1, RXFP1; assay: p38MAPK phosphorylation (Surefire) in human primary vascular cells; assay type: cell-based; set-up: In human primary vascular endothelial and smooth muscle cells that endogenously express RXFP1; conditions: 15 min
Method: as §1

[4] = set-up: method as in PMID 23764525; conditions: cited from earlier work
[5] = molecular target: T1, RXFP1; assay: 125I-H2 relaxin association and dissociation kinetic studies in HEK-RXFP1 cells; assay type: binding; set-up: expressed in transfected cells; host or cells: HEK293T / HEK293 cells stably expressing RXFP1 (HEK-RXFP1); conditions: ML290 1 μM
Method: Association and dissociation kinetic studies were performed using ^125I-H2 relaxin. Briefly, HEK-RXFP1 cells were plated in 96-well plates and allowed to adhere overnight. After rinsing with PBS, the cells were incubated at the given time intervals with 100pM of ^125I-H2 relaxin to measure the association rate. The dissociation rate of ML290 was calculated using ligand competition. […] The reactions were terminated by the removal of medium and washing with ice-cold PBS. Cells were digested using 0.1 M NaOH and radioactivity counted on the γ-counter.

[6] = system: LDLa mutant receptors; conditions: cited from earlier work
[7] = system: human RXFP1; conditions: cited from earlier work
[8] = system: ML290-mediated cAMP accumulation; assay: Effect of signalling pathway inhibitors on ML290-mediated cAMP accumulation in human primary vascular cells; assay type: cell-based
Method: as §2, with “Where appropriate, cells were pre-incubated with mSIRK (5 μM, 30 min), mSIRK control peptide L9A (5 μM, 30 min), gallein (100 μM, 30 min), Wortmannin (100 nM, 30 min), NF023 (10 μM, 30 min) and NF449 (10 μM, 30 min).” left out

Compound: CC(C)Oc1ccccc1C(=O)Nc1ccccc1C(=O)Nc1cccc(S(=O)(=O)C(F)(F)F)c1 [ML290, 2-Isopropoxy-N-(2-(3-(trifluoromethylsulfonyl)phenylcarbamoyl)phenyl) benzamide]
- JNK1/2 phosphorylation, time course [1]: no effect
- Emax [2]: 113%
- Emax ([3]; read-out: p-p38MAPK efficacy (Emax), HUASMC): 4.4%
- Emax ([3]; read-out: p-p38MAPK efficacy (Emax), HUVSMC): 2.7%
- microsomal stability [4]: high microsomal stability
- effect on the association rate of 125I-H2 relaxin [5]: no significant effect
- cAMP production with LDLa mutant receptors [6]: still activates cAMP production
- agonist action at human RXFP1 [7]: activates
- ML290-mediated cAMP accumulation, ML290 alone ([8]; HCAECs, ML290 10 μM, 30 min): 22.5 ± 5.5 % response to 50 μM forskolin
- ML290-mediated cAMP accumulation, ML290 alone ([8]; HUASMCs, control of NF449 and mSIRK experiments): 18.8 ± 4.3 % response to 50 μM forskolin
- ML290-mediated cAMP accumulation, ML290 alone ([8]; HUASMCs, control of gallein and Wortmannin experiments): 16.7 ± 3.4 % response to 50 μM forskolin
- ML290-mediated cAMP accumulation, ML290 alone ([8]; HUVECs, ML290 10 μM, 30 min): 16.4 ± 2.5 % response to 50 μM forskolin
- ML290-mediated cAMP accumulation, ML290 alone ([8]; HUVSMCs, control of NF449 and mSIRK experiments): 18.8 ± 8.0 % response to 50 μM forskolin
- ML290-mediated cAMP accumulation, ML290 alone ([8]; HUVSMCs, control of gallein and Wortmannin experiments): 12.6 ± 2.4 % response to 50 μM forskolin
